Laboratory results published in patent US4242261A, “Production of methylene-cycloamines” (A. H. Robins Company, Inc., priority 1979, dated 1980).
Where “and” joins values, the source holds several entries; their conditions need not be identical. Equal entries are not always repeated. Where two headings read alike, the source gives them in different places.

System: Tetrabenazine-Induced Ptosis
Experiment: Blockade of Tetrabenazine-Induced Ptosis in Mice (antidepressant activity)
Format: in vivo, mice (ICR-DUB strain)
Conditions: female mice; for ED50: Mus musculus
Method: Thirty minutes later the presence or absence of complete eyelid closure (ptosis) is assessed in each animal. For compounds which produced blockage of ptosis in all animals, and ED50 value is obtained using a minimum of three geometrically spaced dosages with five mice/dose.

[1] = IP, 30 min before tetrabenazine 32 mg/kg IP, test compounds in text, read-out: ED50 (confidence limits)
[2] = ip, read-out: ED50 (95% confidence limits), IP, 30 min before tetrabenazine 32 mg/kg IP, Table 1 reference agents, probit analysis

Structure (SMILES) | ED50 [1] | ED50 (95% confidence limits) (IP, 30 min before tetrabenazine 32 mg/kg IP, Table 1 reference agents, probit analysis) | ED50 [2]
CC(C)N1CC(=C(c2ccccc2)c2ccccc2)C1.O=C(O)C(=O)O [1-isopropyl-3-diphenylmethyleneazetidine oxalate] | 2.18 mg/kg | – | –
CN1CC(=C(c2ccccc2)c2ccccc2)C1 [1-methyl-3-diphenylmethyleneazetidine] | 1.48 mg/kg | – | –
CN(C)CCCN1c2ccccc2CCc2ccccc21 [imipramine] | – | 0.4 (0.2-0.9) mg/kg and 0.5 (0.2-1.2) mg/kg | 0.3 mg/kg
CCOc1ccccc1OCC1CNCCO1 (centres unmarked) [viloxazine] | – | – | 1.5 mg/kg
